From publication PMC10725991, “Kaempferol is a novel antiviral agent against channel catfish virus infection through blocking viral attachment and penetration in vitro” (Frontiers in Veterinary Science, 2023)

Tested on: CCV ORF 39 and ORF 59 proteins in CCO cells
Experiment: Western blot of CCV ORF 39 and ORF 59 proteins
Type: cell-based, Channel catfish virus (CCV, Ictalurid herpesvirus 1)
Experimental: To test the anti-CCV effect of tested compounds in the preliminary screening, CCO cells were seeded in 24-well plates and cultured to reach approximately 90% confluence in each well at 28°C. Subsequently, the cells were infected with the CCV at 10^3 TCID50/ml at 28°C for 1 h. After that, the cell culture medium was replaced using an isopycnic DMEM medium containing the maximum safe concentration of indicated compounds. CCV-infected cells treated with DMSO served as a negative control, whereas CCV-infected cells treated with acyclovir (2.5 μg/mL) served as a positive control ([33]). After 36 h treatment, cell lysates were collected to test the CCV gene expression by the RT-qPCR, and the percentage inhibition of CCV infection by individual compound was calculated. According to the percentage inhibition results, we further detected the antiviral activity of kaempferol at maximum safe concentration by viral cytopathic effects (CPE) and western blot analysis. […]
For the western blot assay, firstly, cells were lysed with cell lysis buffer (Beyotime, China), and then the concentrations of protein samples collected from cell lysates protein were determined using the Enhanced BCA Protein Assay Kit (Beyotime, China). […] Finally, the signals were detected using an ECL kit (Beyotime, China) according to the manufacturer’s instructions.

## O=c1c(O)c(-c2ccc(O)cc2)oc2cc(O)cc(O)c12 [Kaempferol]
Kaempferol 10 μg/mL to 15 μg/mL, 24 and 36 h
  viral protein (CCV ORF 39, ORF 59) level, western blot: nearly undetectable
Maximum safe concentration (47.53 μg/mL), 36 h post-infection
  expression of viral proteins (CCV ORF 39, ORF 59), western blot: suppressed the expression of viral proteins
